The values below come from patent US20130053323A1, “METHODS AND USE RELATED TO HUMANIN AND HUMANIN-LIKE PEPTIDES” (priority 2009, published 2013).

For assay [1], the system named is medulloblastoma (D-283) xenograft. Description: Tumor volume in medulloblastoma xenograft in NMRI nude mice. It is filed as in vivo, human. The following applies: bortezomib + HNG i.p., until day 13. How it is done:
Male NMRI nu/nu mice (B&K Scanbur, Sweden or Taconic, Denmark) were xenografted at the age of 4 weeks (BW 18-25 g). The mice were anesthetized with 2% fluothane (Zeneca Ltd, Macclesfield, UK) supplemented with 50% N2O in oxygen. Tumor cells (NB (SH-SY5Y; 20×10^6 cells/side) or MB (D-283; 10×10^6 cells/side) in 0.1 ml medium) were implanted s.c. in the hindlegs of the animal using a 23 G needle. Tumors were measured every other day with a digital caliper, starting when they were palpable. At a tumor volume of 0.1 ml or 0.15 ml the animals were randomized into groups (1. Vehicle without tumors; 2. Vehicle with tumors; 3. HNG (S14G; 1 μg/mice); 4. CT (bortezomib; 0.8 mg/kg or 1 mg/kg); 5. HNG (S14G) 1 μg/mice+CT (bortezomib; 0.8 mg/kg or 1 mg/kg), stratified by their bodyweight and treatment started. Treatment regime was the same as in clinical settings with 2 injections/week; 2 weeks treatment (see FIG. 1, Group 1). HNG (S14G) was injected 40 min before the CT (bortezomib) injection. Tumor volume was calculated by the formula 0.44×length×width×width (Wassberg, Pahlman et al. 1997). […] The animal weight and general appearance were recorded every day throughout the experiments. […] After fixation, femur and tibia were measured with digital calipers and decalcified in 5% EDTA and then paraffin embedded. […]
On the technique in general: A xenograft is tissue or cells of one species grown in another, often human tumour cells in immunodeficient mice.

Another assay has as its system FVB mice. The assay is described as follows: Bone mineral density by dual energy X-ray absorptiometry in FVB mice. It is filed as in vivo. The note with it: HNG 1 μg/mice/day for four weeks, vs vehicle. How it is done:
Areal bone mineral density (BMD; BMC/cm^2) and BMC were measured by dual energy X-ray absorptiometry (DXA) using the Lunar PIXImus mouse densitometer (Wipro GE Healthcare, Madison, Wisc.). Ex vivo measurements were taken from FVB mice treated with Dexa and HNG for four weeks (for details see methods and materials). The measurements of left femur and tibia were performed on excised bones placed on a 1-cm-thick Plexiglas™ table. All bones compared were measured in the same scan (high-resolution scan with line spacing set at 0.01 cm). n=9-10/animals/group.
In the light of the above findings where it was observed rescuing effects of HNG (S14G) on bone growth both in vitro and in vivo, it was analyzed whether HNG (S14G) has the capacity to regulate BMD. […] Trabecular BMD in tibia (mg/cm^3) of four-week old FVB mice treated for 4 weeks was measured by using DEXA (see protocol in material and methods).

The subject of assay [2] is neuroblastoma (SK-N-BE(2)) tumor xenografts. The assay is described as follows: Doubling time of tumors in neuroblastoma xenografts. The following applies: combination bortezomib 0.8 mg/kg i.v. + HNG 1 μg/mouse/injection i.p.; p<0.05 vs vehicle. It is filed as in vivo, human.

Consider “S14G-HN (MAPRGFSCLLLLTGEIDLPVKRRA) [HNG (S14G)]”, for which the “interference with anti-cancer effect of bortezomib (tumor volume)” value in assay [1] is “does not interfere with the anti-cancer effect”. In the assay on FVB mice, the “trabecular BMD in tibia” value is listed as “trend towards increased BMD”. Further, the tumor doubling time entry in assay [2] is “significant reduction in tumor doubling time”.
